{
  "source": "patent US9688633B2",
  "about": "“Substituted piperidines with antiparasitic activity” (INSTITUT DE RECHERCHE POUR LE DEVELOPPEMENT, priority 2014, dated 2017)",
  "key": {"[1]": {"test_system": "Plasmodium falciparum FCR-3", "assay": "In vitro antiplasmodial drug assay ([3H]-hypoxanthine incorporation)", "format": "cell-based", "description": "The drugs dissolved in dimethylsulfoxide (DMSO) were added at final concentrations ranging from 200 to 0.1 μM. All experiments were performed in triplicate. The final DMSO concentration was never greater than 0.1%. […].\n% Inhibition of the incorporation of labeled hypoxanthine=100−(P/T*100),\nP: c.p.m. for every concentration, and\nT: negative control (red blood cells without drug)."}, "VERO cells": {"test_system": "VERO cells", "assay": "Toxicity assay, MTT viability on VERO cells", "format": "cell-based, African Green Monkey", "conditions": "VERO cells survival, 48 hours, MTT; average of three independent determinations; read-out: TC50 (the source's name)", "description": "(§1) Drugs were added at different concentrations and the cells were cultured for 48 hours. The effect was determined using the 3-(4,5-dimethylthiazol-2-yl)-2,5-diphenyltetrazolium bromide (MTT) viability assay. Four hours after the addition of MTT, 100 μl of lysis buffer (50% isopropanol, 30% water, 20% SDS) were added and the cells were incubated at room temperature for 15 min under agitation. Finally, optical density was read at 590 nm with a 96-well scanner (Bio-Rad). All experiments were performed in triplicate."}, "P. berghei ANKA": {"test_system": "P. berghei ANKA", "assay": "In vivo antiplasmodial drug assay (4-day suppressive test) in murine model", "conditions": "Swiss male mice, 4 consecutive days, read on day 4", "description": "The antiplasmodial activity of Compound 7 was tested in vivo in a murine model. The antiplasmodial activity of a Compound A representative of the prior art was also tested: Studies were conducted according to the French and Colombian guidelines on laboratory animal use and care (No 2001-464 and No 008430, respectively). The classical 4-day suppressive test was carried out (W. Peters, Chemotherapy and drug resistance in malaria, Academic Press: London, 1970). Swiss male mice weighing 20±2 g, were infected with 10^7 P. berghei ANKA parasitized cells (day 0). […] […] Survival of the mice was checked daily and the percentage of parasitized erythrocytes was determined on day 4, by Giemsa-stained thin blood smears made from peripheral blood. The percentage of inhibition of parasitaemia was calculated."}, "[2]": {"assay": "Toxicity assay, MTT viability on VERO cells", "format": "cell-based, African Green Monkey", "conditions": "African green monkey", "description": "as §1"}, "mice": {"test_system": "mice", "assay": "Cytotoxicity (toxicity) after administration in a malaria murine model", "format": "in vivo, mouse", "conditions": "50 mg·kg^-1, malaria murine model", "description": "The cytotoxicity of Compound 7 was compared to the cytotoxicity of Compound 31 of the publication of Silvia Perez-Silanes et al., Molecules 2009, 14, 4120-4135, the compounds only differentiated by the nature of the Ar group (4-fluoro-1-phenyl group vs benzo[b]thiophenyl).\nBoth compounds were administered at 50 mg·kg^−1 in a malaria murine model."}, "[3]": {"conditions": "chloroquine-resistant FCR-3 strain, 50% of Plasmodium falciparum growth, average of three independent determinations, read-out: IC50"}, "[4]": {"conditions": "FCR3, chloroquine-resistant FCR-3 strain, 50% of Plasmodium falciparum growth, average of three independent determinations, read-out: IC50"}},
  "note": "Read-outs that look alike come from different tables or passages of the source.",
  "data": [
    {"compound": "3-[4-(4-fluorophenyl)-3,6-dihydropyridin-1(2H)-yl]-1-(4-(trifluoromethyl phenyl)propan-1-ol) [Compound 4]", "values": [
      {"measurement": "IC50", "setting": "[1]; [3]", "result": 5.6, "unit": "µM"},
      {"measurement": "CC50", "setting": "VERO cells", "result": "> 100", "unit": "µM"}
    ]},
    {"compound": "CCN(CC)CCCC(C)Nc1ccnc2cc(Cl)ccc12", "note": "(stereo not drawn) [CQ, chloroquine, reference compound]", "values": [
      {"measurement": "IC50", "setting": "[1]; Plasmodium falciparum, FCR3", "result": 0.13, "unit": "µM"},
      {"measurement": "percentage of inhibition of parasitaemia", "setting": "P. berghei ANKA; 3 mg/kg/day oral", "result": 65, "unit": "%"}
    ]},
    {"compound": "OC(CCN1CC=C(c2ccc(F)cc2)CC1)c1ccc2ccccc2c1", "note": "(stereo not drawn) [Compound 3, 3-[4-(4-fluorophenyl)-3,6-dihydropyridin-1(2H)-yl]-1-(naphthalen-2-yl)propan-1-ol]", "values": [
      {"measurement": "IC50", "setting": "[1]; [4]", "result": 36.1, "unit": "µM"},
      {"measurement": "CC50 at 48 h", "setting": "[2]", "result": "> 100", "unit": "µM"},
      {"measurement": "melting point", "result": "127 to 129", "unit": "°C"}
    ]},
    {"compound": "O=[N+]([O-])c1ccc(N2CCC(NCCC(O)c3ccc(F)c4ccccc34)CC2)c(C(F)(F)F)c1", "note": "(stereo not drawn) [Compound 5, 1-(4-fluoronaphthalen-1-yl)-3-((1-(4-nitro-2-(trifluoromethyl)phenyl)piperidin-4-yl)amino)propan-1-ol]", "values": [
      {"measurement": "IC50", "setting": "[1]; [4]", "result": 0.15, "unit": "µM"},
      {"measurement": "CC50 at 48 h", "setting": "[2]; VERO cells (kidney epithelial cells), VERO cells survival, 48 hours, MTT, average of three independent determinations, read-out: TC50", "result": 5.5, "unit": "µM"}
    ]},
    {"compound": "OC(CCN1CC=C(c2ccc(F)cc2)CC1)c1ccc(F)cc1", "note": "(stereo not drawn) [Compound 8, 1-(4-fluorophenyl)-3-[4-(4-fluorophenyl)-3,6-dihydropyridin-1 (2H)-yl]propan-1-ol]", "values": [
      {"measurement": "IC50", "setting": "[1]; [4]", "result": 0.66, "unit": "µM"},
      {"measurement": "CC50 at 48 h", "setting": "[2]", "result": "> 100", "unit": "µM"},
      {"measurement": "melting point", "result": "199 to 201", "unit": "°C"}
    ]},
    {"compound": "Cl.O=[N+]([O-])c1ccc(N2CCC(NCCC(O)c3ccc(F)cc3)CC2)c(C(F)(F)F)c1", "note": "(stereo not drawn) [Compound 7]", "values": [
      {"measurement": "IC50", "setting": "[1]; [3]", "result": 0.48, "unit": "µM"},
      {"measurement": "CC50", "setting": "VERO cells", "result": 30.2, "unit": "µM"},
      {"measurement": "percentage of inhibition of parasitaemia", "setting": "P. berghei ANKA; 50 mg/kg/day oral", "result": 76, "unit": "%"},
      {"measurement": "cytotoxicity after administration", "setting": "mice", "result": "No cytotoxicity was detected"}
    ]},
    {"compound": "OC(CCN1CC=C(c2ccc(F)cc2)CC1)c1ccc(F)c2ccccc12", "note": "(stereo not drawn) [Compound 6, 1-(4-fluoronaphthalen-1-yl)-3-[4-(4-fluorophenyl)-3,6-dihydropyridin-1(2H)-yl]propan-1-ol]", "values": [
      {"measurement": "IC50", "setting": "[1]; [4]", "result": 0.4, "unit": "µM"},
      {"measurement": "CC50 at 48 h", "setting": "[2]", "result": "> 50", "unit": "µM"}
    ]}
  ]
}
